Assay results from the supplement of paper PMC10307832.

Key:
Experiment in all cases: relative viability (nuclei count vs DMSO), 5 days (fraction); higher = more cells survive
201T = system: 201T
How it was run: (§1)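 Cells from lung cancer lines were seeded into 1536-well plates and, one day later, dosed by pin tool. Treatments were either a single drug or a fixed dose of an anchor drug with five library-drug doses (not always all listed) in √10 steps. After 5 days, nuclei were stained in a one-step fixation (final 0.05% Triton X-100, 1% formaldehyde, 1 ug/ml Hoechst) and counted on 4× images, and relative viability is the treated-to-vehicle nuclei ratio, as the median of duplicate plates.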

Calu-6 = system: Calu-6
How it was run: as §1

EBC-1 = system: EBC-1
How it was run: as §1

EMC-BAC-2 = system: EMC-BAC-2
How it was run: as §1

EPLC-272H = system: EPLC-272H
How it was run: as §1

HCC-78 = system: HCC-78
How it was run: as §1

IA-LM = system: IA-LM
How it was run: as §1

LCLC-103H = system: LCLC-103H
How it was run: as §1

NCI-H1355 = system: NCI-H1355
How it was run: as §1

NCI-H1666 = system: NCI-H1666
How it was run: as §1

NCI-H1755 = system: NCI-H1755
How it was run: as §1

NCI-H1792 = system: NCI-H1792
How it was run: as §1

Nc1cccc2c1CN(C1CCC(=O)NC1=O)C2=O (stereo not given) [Lenalidomide] + C[C@]1(O)C[C@@H](c2nc(-c3ccc4ccc(-c5ccccc5)nc4c3)c3c(N)nccn32)C1 [Linsitinib] (partner 1 µM)
relative viability (201T; first compound 0.253 µM): 1.08
relative viability (201T; first compound 0.8 µM): 1.18
relative viability (201T; first compound 2.53 µM): 1.05
relative viability (201T; first compound 8 µM): 0.908
relative viability (Calu-6; first compound 0.253 µM): 0.836
relative viability (Calu-6; first compound 0.8 µM): 0.984
relative viability (Calu-6; first compound 2.53 µM): 1.12
relative viability (Calu-6; first compound 8 µM): 0.818
relative viability (EBC-1; first compound 0.253 µM): 0.826
relative viability (EBC-1; first compound 0.8 µM): 0.849
relative viability (EBC-1; first compound 2.53 µM): 1.09
relative viability (EBC-1; first compound 8 µM): 0.774
relative viability (EMC-BAC-2; first compound 0.253 µM): 0.786
relative viability (EMC-BAC-2; first compound 0.8 µM): 0.833
relative viability (EMC-BAC-2; first compound 2.53 µM): 0.823
relative viability (EMC-BAC-2; first compound 8 µM): 0.693
relative viability (EPLC-272H; first compound 0.253 µM): 1.24
relative viability (EPLC-272H; first compound 2.53 µM): 1.11
relative viability (EPLC-272H; first compound 8 µM): 0.843
relative viability (HCC-78; first compound 0.253 µM): 0.55
relative viability (HCC-78; first compound 0.8 µM): 0.466
relative viability (HCC-78; first compound 2.53 µM): 0.605
relative viability (HCC-78; first compound 8 µM): 0.383
relative viability (IA-LM; first compound 0.253 µM): 0.605
relative viability (IA-LM; first compound 0.8 µM): 0.468
relative viability (IA-LM; first compound 2.53 µM): 0.667
relative viability (IA-LM; first compound 8 µM): 0.49
relative viability (LCLC-103H; first compound 0.253 µM): 1.11
relative viability (LCLC-103H; first compound 0.8 µM): 1.09
relative viability (LCLC-103H; first compound 2.53 µM): 1.05
relative viability (LCLC-103H; first compound 8 µM): 0.86
relative viability (NCI-H1355; first compound 0.253 µM): 0.827
relative viability (NCI-H1355; first compound 0.8 µM): 0.748
relative viability (NCI-H1355; first compound 2.53 µM): 0.864
relative viability (NCI-H1355; first compound 8 µM): 0.53
relative viability (NCI-H1666; first compound 0.253 µM): 0.921
relative viability (NCI-H1666; first compound 0.8 µM): 0.652
relative viability (NCI-H1666; first compound 2.53 µM): 0.853
relative viability (NCI-H1666; first compound 8 µM): 0.833
relative viability (NCI-H1755; first compound 0.253 µM): 0.968
relative viability (NCI-H1755; first compound 0.8 µM): 1.01
relative viability (NCI-H1755; first compound 2.53 µM): 0.983
relative viability (NCI-H1755; first compound 8 µM): 0.897
relative viability (NCI-H1792; first compound 0.253 µM): 0.53
relative viability (NCI-H1792; first compound 0.8 µM): 0.457
